Experimental data published in patent publication US6844358B2, “Phenyl oxo-acetic acids useful in the treatment of insulin resistance and hyperglycemia” (Wyeth, priority 1998, dated 2005).
Read-outs that look alike come from different tables or passages of the source.

Legend:
[1] = tested on: diabetic (ob/ob) mice; experiment: Blood glucose lowering activity in diabetic (ob/ob) mice; format: in vivo; settings: Mus musculus, po
Experimental: The procedures used and results obtained are briefly described below. […]
In each test procedure, mice [Male or female ob/ob (C57 B1/6J) and their lean litermates (ob/+ or +/+, Jackson Laboratories) ages 2 to 5 months (10 to 65 g)] of a similar age were randomized according to body weight into 4 groups of 10 mice. The mice were housed 5 per cage and are maintained on normal rodent chow with water ad libitum. Mice received test compound daily by gavage (suspended in 0.5 ml of 0.5% methyl cellulose); dissolved in the drinking water; or admixed in the diet. The dose of compounds given ranges from 2.5 to 200 mg/kg body weight/day. The dose is calculated based on the fed weekly body weight and is expressed as active moiety. […] Control mice received vehicle only.
On the morning of Day 4, 7 or 14 two drops of blood (approximetly 50 ul) were collected into sodium fluoride containing tubes either from the tail vein or after decapitation. For those studies in which the compound was administered daily by gavage the blood samples were collected two hours after compound administration. […]
Analysis of variance followed by Dunett's Comparison Test (one-tailed) are used to estimate the significant difference between the plasma glucose values from the control group and the individual compound treated groups (CMS SAS Release 5.18).

[2] = target: T1, recombinant rat protein tyrosine phosphatase, PTP1B (rPTP1B) (Rattus norvegicus, UniProt P20417); format: biochemical; settings: for % change from control at 10 μM: 10 μM compound
T1 sequence (P20417 1-432): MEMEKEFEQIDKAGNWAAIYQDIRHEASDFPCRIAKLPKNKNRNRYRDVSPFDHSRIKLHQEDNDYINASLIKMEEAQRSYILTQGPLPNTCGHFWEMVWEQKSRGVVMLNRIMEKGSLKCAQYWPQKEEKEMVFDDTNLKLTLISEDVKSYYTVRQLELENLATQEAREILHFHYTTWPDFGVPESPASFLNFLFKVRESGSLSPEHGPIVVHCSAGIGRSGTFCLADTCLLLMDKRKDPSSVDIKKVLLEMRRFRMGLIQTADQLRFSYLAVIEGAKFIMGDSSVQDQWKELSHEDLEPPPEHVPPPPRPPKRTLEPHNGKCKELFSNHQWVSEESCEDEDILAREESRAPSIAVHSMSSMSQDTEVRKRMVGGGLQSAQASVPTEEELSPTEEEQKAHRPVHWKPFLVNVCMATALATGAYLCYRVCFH

[3] = target: rat hepatic microsomal PTPases; settings: rat hepatic microsomal PTPase; for IC50: dodecaphosphopeptide substrate 50 uM; for % Change from Control at 50 μM: 50 μM compound
[4] = target: T2, Human recombinant PTP1B (hPTP1B) (Homo sapiens, UniProt P18031); format: biochemical; settings: hPTP1B
T2 construct: made in house
T2 sequence (P18031 1-435): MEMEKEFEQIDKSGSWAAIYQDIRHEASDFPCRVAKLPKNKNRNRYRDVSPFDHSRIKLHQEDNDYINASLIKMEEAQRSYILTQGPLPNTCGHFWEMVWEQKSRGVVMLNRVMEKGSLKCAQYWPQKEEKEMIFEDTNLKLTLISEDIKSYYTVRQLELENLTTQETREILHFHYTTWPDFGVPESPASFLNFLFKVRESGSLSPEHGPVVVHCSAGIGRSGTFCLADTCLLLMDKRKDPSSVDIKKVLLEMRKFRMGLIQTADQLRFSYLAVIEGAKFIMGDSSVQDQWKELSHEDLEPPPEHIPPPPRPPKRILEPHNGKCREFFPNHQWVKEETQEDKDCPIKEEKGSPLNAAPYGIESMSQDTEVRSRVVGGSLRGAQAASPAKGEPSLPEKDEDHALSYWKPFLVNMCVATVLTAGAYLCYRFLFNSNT

[5] = 96 h, plasma glucose on Day 4, 7 or 14, suffix a = no significant activity at this dose, read-out: % Change Glucose from Vehicle
[6] = suffix a = no significant activity at this dose, read-out: % Change Insulin from Vehicle

Row | Structure (SMILES) | change in vivo at 100 mg/kg [1, 5] [%] | change in vivo at 100 mg/kg [1, 6] [%] | IC50 [2] [µM] | IC50 [3] [µM] | % change from control at 10 μM ([2]; rPTP1B) | melting point [°C] | % Change from Control at 50 μM [3] [%] | IC50 ([2]; rPTP1B, read-out: IC50) [µM] | IC50 [4] [µM]
1 | CC1(COc2ccc(CC3SC(=O)NC3=O)cc2)CCCCC1 (stereo not shown) [Ciglitazone, 5-(4-(1-methylcyclohexylmethoxy)benzyl)-2,4-dione, reference compound] | -43 | -39 |  |  |  |  |  |  | 
2 | CCc1oc2ccccc2c1C(=O)c1cc(Br)c(O)c(Br)c1 [Example 1, (2-Ethyl-benzofuran-3-yl)-(3,5-dibromo-4-hydroxy-phenyl)-methanone] | -44.6 | -89.5 | 25.8 | 70.1 |  |  |  |  | 
3 | CCc1oc2ccccc2c1C(=O)c1cc(Br)c(OCC(=O)O)c(Br)c1 [Example 2, [2,6-dibromo-4-(2-ethyl-benzofuran-3-carbonyl)-phenoxy]-acetic acid] | -48.1 | -78.2 |  |  | −30 (rPTP1B) % | 135 to 137 | −25 |  | 
4 | CCc1oc2ccccc2c1Cc1cc(Br)c(O)c(Br)c1 [Example 3, 2,6-Dibromo-4-(2-ethyl-benzofuran-3-yl-methyl)-phenol] | -6.2 | -56.6 |  |  | −74 (rPTP1B) % | 87 to 88 | −34 |  | 
5 | CCc1oc2ccccc2c1C(=O)c1cc(Br)c(O)c(Br)c1O [Example 4, (3,5-Dibromo-2,4-dihydroxy-phenyl)-(2-ethyl-benzofuran-3-yl)-methanone] | -19.8 | -61.8 |  | 34.3 | −64 (rPTP1B) % | 150 to 151 |  |  | 
6 | CCCCc1oc2ccccc2c1C(=O)c1cc(Br)c(OCC(=O)O)c(Br)c1 [Example 5, [2,6-Dibromo-4-(2-butyl-benzofuran-3-carbonyl)-phenoxy]-acetic acid] | -20.1 | -54.8 |  | 31.2 | −78 (rPTP1B) % | 92 to 94 |  |  | 
7 | CCCCc1oc2ccccc2c1C(=O)c1cc(Br)c(O)c(Br)c1 [Example 6, (2-Butyl-benzofuran-3-yl)-(3,5-dibromo-4-dihydroxy-phenyl)-methanone] | -40.6 | -70.4 |  | 24.2 | −90 (rPTP1B) % |  |  |  | 
8 | CCc1oc2ccccc2c1C(=O)c1c(Br)cc(Br)c(O)c1Br [Example 8, (2-Ethyl-benzofuran-3-yl)-(2,4,6-tribromo-3-hydroxy-phenyl)-methanone] | -3.3 | -31.2 |  | 17.5 | −61 (rPTP1B) % | 153 to 154 |  |  | 
9 | O=C(c1cc(I)c(O)c(I)c1)c1c(Cc2ccccc2)oc2ccccc12 [Example 9, (2-Benzyl-benzofuran-3-yl)-(4-hydroxy-3,5-diiodo-phenyl)-methanone] | -37.1 | -73.7 |  | 22.7 | −99 (rPTP1B) % | 153 to 154 |  |  | 
10 | O=C(O)COc1c(Br)cc(C(=O)c2c(Cc3ccccc3)oc3ccccc23)cc1Br [Example 10, [4-(2-Benzyl-benzofuran-3-carbonyl)-2,6-dibromo-phenoxy]-acetic acid] | -17.7 | -70 |  | 36 | −75 (rPTP1B) % | 165 to 167 |  |  | 
11 | O=C(O)COc1c(Br)cc(C(=O)c2c(Cc3ccccc3)sc3ccccc23)cc1Br [Example 12, [4-(2-Benzyl-benzo[b]thiophen-3-carbonyl)-2,6-dibromo-phenoxy]-acetic acid] | -30.7 | -60.7 |  | 27.8 | −88 (rPTP1B) % | 162 to 163 |  |  | 
12 | CCc1oc2ccc(Cl)cc2c1C(=O)c1cc(Br)c(O)c(Br)c1 [Example 13, (5-Chloro-2-ethyl-benzofuran-3-yl)-(3,5-dibromo-4-hydroxy-phenyl)-methanone] | -12 | -74.5 |  | 27.1 | −64 (rPTP1B) % |  |  |  | 
13 | O=C(c1cc(Br)c(O)c(Br)c1)c1c(Cc2ccccc2)oc2ccccc12 [Example 14, (2-Benzyl-benzofuran-3-yl)-(3,5-dibromo-4-hydroxy-phenyl)-methanone] | -36.8 | -40.7 |  | 27.8 | −81 (rPTP1B) % | 156 to 158 |  |  | 
14 | O=C(c1cc(Br)c(O)c(Br)c1)c1c(CCc2ccccc2)oc2ccccc12 [Example 15, (3,5-Dibromo-4-hydroxy-phenyl)-(2-phenethyl-benzofuran-3-yl)-methanone] | -32.8 | -10.3 |  | 20.5 |  | 153 to 154 |  | 2.6 | 
15 | CCCCc1oc2ccccc2c1C(=O)c1cc(I)c(O)c(I)c1 [Example 16, (2-Butyl-benzofuran-3-yl)-(4-hydroxy-3,5-diiodo-phenyl)-methanone] | -51.8 | -73.7 |  | 15.3 |  |  |  | 0.19 | 2.6
16 | O=C(O)COc1c(I)cc(C(=O)c2c(Cc3ccccc3)oc3ccccc23)cc1I [Example 17, [4-(2-Benzyl-benzofuran-3-carbonyl)-2,6-diiodo-phenoxy]-acetic acid] |  |  |  | 28.4 | −97 (rPTP1B) % | 144 to 146 |  |  | 
17 | CCc1oc2ccccc2c1C(=O)c1cc(I)c(O)c(I)c1 [Example 18, (2-ethyl-benzofuran-3-yl)-(4-hydroxy-3,5-diiodo-phenyl)-methanone] | -39.6 | -83.6 |  | 30.7 | −60 (rPTP1B) % |  |  |  | 
18 | O=C(O)COc1c(Br)cc(C(=O)c2c(CCc3ccccc3)oc3ccccc23)cc1Br [Example 19, [2,6-Dibromo-4-(2-phenethyl-benzofuran-3-carbonyl)-phenoxy]-acetic acid] |  |  |  | 26.3 | −53 (rPTP1B) % | 163 to 164 |  |  | 
19 | CCc1oc2ccc(Cl)cc2c1C(=O)c1cc(Br)c(OCC(=O)O)c(Br)c1 [Example 20, [2,6-dibromo-4-(5-chloro-2-ethyl-1-benzofuran-3-carbonyl)-phenoxy]-acetic acid] |  |  |  | 40.4 | −34 (rPTP1B) % | 175 to 177 |  |  | 
20 | O=C(c1cc(Br)c(OCP(=O)(O)O)c(Br)c1)c1c(Cc2ccccc2)sc2ccccc12 [Example 21, [4-(2-benzyl-benzo[b]thiophen-3-carbonyl)-2,6-dibromo-phenoxymethyl]-phosphonic acid] |  |  |  | 34.5 | −35 (rPTP1B) % | 210 to 212 |  |  | 
21 | CCCCc1oc2ccccc2c1C(=O)c1cc(Br)c(O[C@H](Cc2ccccc2)C(=O)O)c(Br)c1 [Example 22, (R)-2-[2,6-dibromo-4-(2-butyl-benzofuran-3-carbonyl)-phenoxy]-3-phenyl-propionic acid] |  |  |  |  |  | 56 to 58 | −77 |  | 1.15
